Series [1] deals with C8-D1A. In words: Antiinflammatory activity against mouse C8D1A cells assessed as inhibition of LPS-induced TNFalpha production at 0.75 to 3 uM pretreated for 4 hrs followed by LPS stimulation measured after 24 hrs by ELISA. The series is classed as functional, cell-based. As to conditions: dose 0.75-3 µM, time 28.0 hrs. In general terms: An ELISA detects its analyte on a solid surface through an enzyme-linked reagent.

The subject of series [2] is C8-D1A. In words: Antiinflammatory activity against mouse C8D1A cells assessed as inhibition of LPS-induced IL-1beta production at 0.75 to 3 uM pretreated for 4 hrs followed by LPS stimulation measured after 24 hrs by ELISA. The series is classed as functional, cell-based. The settings on record: dose 0.75-3 µM, time 28.0 hrs.
In series [3] the test system is C8-D1A. In words: Antiinflammatory activity against mouse C8D1A cells assessed as inhibition of LPS-induced IL-1beta mRNA expression at 0.75 to 3 uM pretreated for 4 hrs followed by LPS stimulation measured after 24 hrs by real time PCR analysis. The series is classed as functional, cell-based. As to conditions: dose 0.75-3 µM, time 28.0 hrs. (In general: Quantitative PCR measures a nucleic acid by following its amplification.)

For series [4], the system named is C8-D1A. In words: Effect on LPS-induced inflammasome activation in mouse C8D1A cells assessed as reduction in caspase 1 protein level at 0.75 to 3 uM by Western blotting analysis. The series is classed as functional, cell-based. The settings on record: dose 0.75-3 µM. Background: A western blot detects proteins with antibodies after separation by electrophoresis.

In series [5] the test system is C8-D1A. In words: Antiinflammatory activity against mouse C8D1A cells assessed as inhibition of LPS-induced NO production at 3 uM measured after 24 hrs in presence of Y1R antagonist BIIE-0246 by Griess method. Type of series: functional, cell-based.
The subject of series [6] is C8-D1A. In words: Antiinflammatory activity against mouse C8D1A cells assessed as inhibition of LPS-induced iNOS expression at 3 uM by Western blotting analysis. The series is classed as functional, cell-based.
Series [7] has as its system C8-D1A. In words: Antiinflammatory activity against mouse C8D1A cells assessed as inhibition of LPS-induced iNOS expression at 3 uM in presence of Y1R antagonist BIIE-0246 by Western blotting analysis. The series is classed as functional, cell-based.
Series [8] relates to C8-D1A. In words: Inhibition of LPS-induced mouse C8D1A cell viability loss assessed as restoration of cell viability at 0.75 to 6 uM after 24 hrs by MTT assay. The series is classed as functional, cell-based. The settings on record: dose 0.75-6 µM.
For series [9], the system named is C8-D1A. In words: Antiinflammatory activity against mouse C8D1A cells assessed as inhibition of LPS-induced GFAP production at 0.75 to 3 uM pretreated for 4 hrs followed by LPS stimulation measured after 24 hrs by DMI-8 microscopy. The series is classed as functional, cell-based. As to conditions: dose 0.75-3 µM, time 28.0 hrs.
The subject of series [10] is C8D1A. In words: Inhibition of NFkappaB p65 phosphorylation at […] in LPS-induced mouse C8D1A cells at 0.75 to 3 uM pretreated for 4 hrs followed by LPS stimulation measured after 24 hrs by Western blotting analysis. The settings on record: dose 0.75-3 µM. The series is classed as cell-based.
The test system of series [11] is C8-D1A. In words: Cytotoxicity against mouse C8D1A cells assessed as cell viability at 0.75 to 50 uM after 24 hrs by MTT assay. Type of series: toxicity, cell-based. As to conditions: dose 0.75-50 µM.
For series [12], the system named is C8-D1A. In words: Antiinflammatory activity against mouse C8D1A cells assessed as inhibition of LPS-induced TNFalpha mRNA expression at 0.75 to 3 uM pretreated for 4 hrs followed by LPS stimulation measured after 24 hrs by real time PCR analysis. Type of series: functional, cell-based. The settings on record: dose 0.75-3 µM, time 28.0 hrs.
Series [13] concerns C8-D1A. In words: Antiinflammatory activity against mouse C8D1A cells assessed as inhibition of LPS-induced IL-6 production at 0.75 to 3 uM pretreated for 4 hrs followed by LPS stimulation measured after 24 hrs by ELISA. The series is classed as functional, cell-based. The settings on record: dose 0.75-3 µM, time 28.0 hrs.
Series [14] concerns C8-D1A. In words: Antiinflammatory activity against mouse C8D1A cells assessed as inhibition of LPS-induced iNOS production by Western blotting analysis. The settings on record: dose 0.75-3 µM, DDE = dose-dependent effect. Type of series: functional, cell-based.
Series [15] has as its system C8-D1A. In words: Antiinflammatory activity against mouse C8D1A cells assessed as inhibition of LPS-induced NO production measured after 24 hrs by Griess method. The series is classed as functional, cell-based. As to conditions: dose 0.75-6 µM, DDE = dose-dependent effect.
Series [16] deals with C8-D1A. In words: Antiinflammatory activity against mouse C8D1A cells assessed as inhibition of LPS-induced IL-6 mRNA expression at 0.75 to 3 uM pretreated for 4 hrs followed by LPS stimulation measured after 24 hrs by real time PCR analysis. The settings on record: dose 0.75-3 µM, time 28.0 hrs. The series is classed as functional, cell-based.
For series [17], the target named is T1, Inhibitor of nuclear factor kappa-B kinase subunit beta (Mus musculus) (UniProt O88351).
T1 sequence (whole entry): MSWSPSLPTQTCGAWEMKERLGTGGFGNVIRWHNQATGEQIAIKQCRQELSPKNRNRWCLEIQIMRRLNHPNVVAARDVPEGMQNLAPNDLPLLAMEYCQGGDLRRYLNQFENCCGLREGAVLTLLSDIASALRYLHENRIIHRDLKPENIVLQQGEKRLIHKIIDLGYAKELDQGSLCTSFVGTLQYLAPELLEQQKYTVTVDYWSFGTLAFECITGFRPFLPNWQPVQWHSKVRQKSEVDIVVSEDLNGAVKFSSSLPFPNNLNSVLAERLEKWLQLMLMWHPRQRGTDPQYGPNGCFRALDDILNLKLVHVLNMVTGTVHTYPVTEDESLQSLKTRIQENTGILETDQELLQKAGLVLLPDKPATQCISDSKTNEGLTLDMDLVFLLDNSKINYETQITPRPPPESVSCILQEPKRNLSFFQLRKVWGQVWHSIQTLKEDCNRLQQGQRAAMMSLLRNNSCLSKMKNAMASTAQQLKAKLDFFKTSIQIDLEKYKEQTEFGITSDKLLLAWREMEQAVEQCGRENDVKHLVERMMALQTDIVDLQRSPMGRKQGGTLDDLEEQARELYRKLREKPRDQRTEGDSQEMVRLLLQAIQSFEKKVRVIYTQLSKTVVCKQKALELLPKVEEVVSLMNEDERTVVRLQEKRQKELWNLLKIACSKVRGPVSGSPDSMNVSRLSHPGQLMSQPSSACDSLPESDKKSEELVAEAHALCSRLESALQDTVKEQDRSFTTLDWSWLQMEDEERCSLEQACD
In words: Inhibition of IkappaBalpha phosphorylation at […] in LPS-induced mouse C8D1A cells at 0.75 to 3 uM pretreated for 4 hrs followed by LPS stimulation measured after 24 hrs by Western blotting analysis. The series is classed as cell-based. As to conditions: dose 0.75-3 µM.

For series [18], the system named is C8-D1A. In words: Effect on LPS-induced inflammasome activation in mouse C8D1A cells assessed as reduction in NLRP3 protein level at 0.75 to 3 uM by Western blotting analysis. Type of series: functional, cell-based. The settings on record: dose 0.75-3 µM.
In series [19] the test system is C8-D1A. In words: Antiinflammatory activity against mouse C8D1A cells assessed as inhibition of LPS-induced ROS production measured after 24 hrs by fluorescent CM-H2DCFDA based flow cytometry. The series is classed as functional, cell-based. As to conditions: dose 0.75-3 µM, DDE = dose-dependent effect.
Series [20] has as its target Inhibitor of nuclear factor kappa-B kinase subunit alpha/beta (Mus musculus) (UniProt Q60680+O88351). In words: Inhibition of IKKalpha/beta phosphorylation at Ser176/180 in LPS-induced mouse C8D1A cells at 0.75 to 3 uM pretreated for 4 hrs followed by LPS stimulation measured after 24 hrs by Western blotting analysis. As to conditions: dose 0.75-3 µM. The series is classed as cell-based.

The subject of series [21] is C8-D1A. In words: Antiinflammatory activity against mouse C8D1A cells assessed as inhibition of LPS-induced NO production at 3 uM measured after 24 hrs by Griess method. The series is classed as functional, cell-based.

Activity calls are given as the source filed them. The calls are words filed in the database; no cut-off is given here. Residues, ends and D or L forms follow the SMILES beside them.

Take `CC[C@H](C)[C@H](NC(=O)[C@@H](NC(=O)[C@@H](NC(=O)[C@H](Cc1ccc(O)cc1)NC(=O)[C@H](Cc1ccc(O)cc1)NC(=O)CNC(=O)[C@H](C)NC(=O)[C@H](CC(C)C)NC(=O)[C@H](CC(=O)O)NC(=O)[C@H](CO)NC(=O)[C@H](CC(C)C)NC(=O)[C@H](Cc1ccc(O)cc1)NC(=O)[C@H](C)NC(=O)[C@H](CC(N)=O)NC(=O)[C@H](CC(C)C)NC(=O)[C@H](CCC(=O)O)NC(=O)[C@H](C)NC(=O)[C@H](CCSC)NC(=O)[C@H](CO)NC(=O)[C@H](CCCCN)NC(=O)[C@H](Cc1ccccc1)NC(=O)[C@H](CO)NC(=O)[C@H](CCC(=O)O)NC(=O)[C@@H]1CCCN1C(=O)[C@H](CCCNC(=N)N)NC(=O)[C@H](CCCCN)NC(=O)[C@@H]1CCCN1C(=O)[C@@H]1CCCN1C(=O)CNC(=O)CNC(=O)[C@@H](N)C(C)C)[C@@H](C)O)C(C)C)C(=O)NCC(=O)N[C@@H](CCCNC(=N)N)C(=O)N1CCC[C@H]1C(=O)N[C@@H](CCCNC(=N)N)C(=O)N[C@@H](Cc1ccccc1)C(=O)O` (H-VGGPPKRPESFKSMAELNAYLSDLAGYYTVIGRPRF-OH): the inhibition entry in series [1], in series [2], in series [3], in [4], in series [5] and in series [6] was “Active” throughout. For the same compound, the inhibition entry in [7], in series [9], in series [10], in series [12], in series [13] and in series [16] was “Active” in each case. Also, the inhibition entry in series [17], in [18], in series [20] and in [21] was “Active” each time. Also, the result in [8] was Active. Also, in [11], the Activity result is recorded as “Non-Toxic”. In addition, the inhibition result in [14], in [15] and in series [19] was “Dde” in each case.

(Values after ChEMBL document CHEMBL5120893, “A Neuropeptide Y/F-like Polypeptide Derived from the Transcriptome of Turbinaria peltata Suppresses LPS-Induced Astrocytic Inflammation” (J Nat Prod, 2022).)
